Here are results for two compounds from ChEMBL document CHEMBL3351663, “Discovery of acylurea isosteres of 2-acylaminothiadiazole in the azaxanthene series of glucocorticoid receptor agonists” (Bioorg Med Chem Lett, 2014).

The term Ki denotes a measure of affinity in units of concentration, obtained from inhibition or displacement. Lower therefore signals a stronger hold on the target. By EC50 is commonly meant the concentration at which the effect is half-maximal.

One series concerns the target T1, Progesterone receptor (Homo sapiens, UniProt P06401).
T1 sequence (P06401 whole entry): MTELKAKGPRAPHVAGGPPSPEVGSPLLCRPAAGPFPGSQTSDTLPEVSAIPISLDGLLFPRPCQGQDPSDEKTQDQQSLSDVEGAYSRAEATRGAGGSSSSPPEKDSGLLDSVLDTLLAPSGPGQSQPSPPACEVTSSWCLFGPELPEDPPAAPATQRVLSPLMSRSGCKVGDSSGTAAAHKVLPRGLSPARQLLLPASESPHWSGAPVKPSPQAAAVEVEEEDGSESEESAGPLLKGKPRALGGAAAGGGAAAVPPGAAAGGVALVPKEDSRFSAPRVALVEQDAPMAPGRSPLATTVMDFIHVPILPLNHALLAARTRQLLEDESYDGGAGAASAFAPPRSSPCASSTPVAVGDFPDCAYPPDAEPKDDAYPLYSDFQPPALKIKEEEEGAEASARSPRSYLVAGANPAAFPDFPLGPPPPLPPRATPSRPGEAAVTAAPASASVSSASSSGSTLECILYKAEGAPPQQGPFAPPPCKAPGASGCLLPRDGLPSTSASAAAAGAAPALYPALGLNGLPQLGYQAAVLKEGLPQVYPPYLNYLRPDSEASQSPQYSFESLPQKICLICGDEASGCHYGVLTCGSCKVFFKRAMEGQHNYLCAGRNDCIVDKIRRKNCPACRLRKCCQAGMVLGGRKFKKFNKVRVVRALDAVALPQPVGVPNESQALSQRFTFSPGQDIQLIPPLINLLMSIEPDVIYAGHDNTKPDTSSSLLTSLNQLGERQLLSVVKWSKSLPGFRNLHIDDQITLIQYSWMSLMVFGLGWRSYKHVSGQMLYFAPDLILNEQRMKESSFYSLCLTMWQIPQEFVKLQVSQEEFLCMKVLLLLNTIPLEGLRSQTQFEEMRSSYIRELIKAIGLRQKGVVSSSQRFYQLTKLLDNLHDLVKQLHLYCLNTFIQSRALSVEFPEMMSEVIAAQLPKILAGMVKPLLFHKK
Briefly: Binding affinity to progesterone receptor (unknown origin) by fluorescence polarization assay. (Fluorescence polarisation rises when a labelled molecule tumbles more slowly, as on binding a larger partner.)

In series [1] the test system is Liver microsome. The experiment in a line: Metabolic stability in human liver microsomes assessed as compound remaining. (In general: Liver microsomes are vesicles of endoplasmic reticulum, rich in cytochrome P450 enzymes.)
For a further series, the target named is T2, Glucocorticoid receptor (Homo sapiens, UniProt P04150).
T2 sequence (P04150 whole entry): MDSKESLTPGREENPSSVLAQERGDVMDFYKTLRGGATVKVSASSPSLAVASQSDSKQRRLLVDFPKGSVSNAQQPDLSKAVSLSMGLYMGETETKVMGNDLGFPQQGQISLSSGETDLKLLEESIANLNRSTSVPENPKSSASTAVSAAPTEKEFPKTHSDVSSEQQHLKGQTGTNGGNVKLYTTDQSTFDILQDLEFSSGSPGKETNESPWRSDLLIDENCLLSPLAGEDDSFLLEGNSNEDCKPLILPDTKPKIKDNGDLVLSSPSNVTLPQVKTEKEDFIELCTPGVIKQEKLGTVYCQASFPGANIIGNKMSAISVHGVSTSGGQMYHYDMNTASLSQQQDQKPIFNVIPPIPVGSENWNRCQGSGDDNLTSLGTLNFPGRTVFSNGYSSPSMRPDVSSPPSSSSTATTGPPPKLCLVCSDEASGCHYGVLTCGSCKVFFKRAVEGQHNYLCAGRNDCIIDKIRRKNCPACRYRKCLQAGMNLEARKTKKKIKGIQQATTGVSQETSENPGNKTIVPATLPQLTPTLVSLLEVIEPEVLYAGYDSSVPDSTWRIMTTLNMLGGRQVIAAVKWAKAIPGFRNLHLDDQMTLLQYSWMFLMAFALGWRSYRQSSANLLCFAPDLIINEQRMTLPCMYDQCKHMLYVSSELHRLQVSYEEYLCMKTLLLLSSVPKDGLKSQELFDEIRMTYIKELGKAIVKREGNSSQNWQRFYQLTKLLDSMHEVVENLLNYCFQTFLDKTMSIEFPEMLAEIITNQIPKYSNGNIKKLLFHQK
Briefly: Agonist activity at glucocorticoid receptor in human A549 cells assessed as E-selectin transrepression by luciferase reporter gene assay. The class given is cell-based. In general terms: Reporter assays use an easily measured gene product as a stand-in for the process of interest.

The test system of another series is Liver. Briefly: Metabolic stability in mouse liver microsomes assessed as compound remaining.
Series [2] deals with Liver microsome. Briefly: Metabolic stability in rat liver microsomes assessed as compound remaining.

In the case of `CC(C)(C(=O)Nc1nncs1)[C@@H]1c2ccc(-c3ccc(C(=O)N4CCOCC4)cc3)nc2Oc2c(F)cccc21`, at Progesterone receptor, the affinity, expressed as Ki, was 44.9 nM.

Consider `CC(C)(C(=O)NC(N)=O)[C@@H]1c2ccc(-c3ccc(C(=O)N4CCOCC4)cc3)nc2Oc2c(F)cccc21`, for which the values for the Stability in the series on Liver microsome [1], with Liver and in the series with Liver microsome [2] were 83%, 80% and 90%, respectively. For the same compound, the EC50 at Glucocorticoid receptor is 1.2 nM. This compound had a Ki on Progesterone receptor of 52.8 nM.
